{
  "source": "patent US20210276987A1",
  "about": "“PHARMACEUTICAL AGENTS FOR USE IN SMOKING AND TOBACCO CESSATION” (Washington State University, priority 2018, published 2021)",
  "key": {"UGT2B10": {"target": "T1, UGT2B10 (Homo sapiens, UniProt P36537)", "T1 sequence (P36537 24-528)": "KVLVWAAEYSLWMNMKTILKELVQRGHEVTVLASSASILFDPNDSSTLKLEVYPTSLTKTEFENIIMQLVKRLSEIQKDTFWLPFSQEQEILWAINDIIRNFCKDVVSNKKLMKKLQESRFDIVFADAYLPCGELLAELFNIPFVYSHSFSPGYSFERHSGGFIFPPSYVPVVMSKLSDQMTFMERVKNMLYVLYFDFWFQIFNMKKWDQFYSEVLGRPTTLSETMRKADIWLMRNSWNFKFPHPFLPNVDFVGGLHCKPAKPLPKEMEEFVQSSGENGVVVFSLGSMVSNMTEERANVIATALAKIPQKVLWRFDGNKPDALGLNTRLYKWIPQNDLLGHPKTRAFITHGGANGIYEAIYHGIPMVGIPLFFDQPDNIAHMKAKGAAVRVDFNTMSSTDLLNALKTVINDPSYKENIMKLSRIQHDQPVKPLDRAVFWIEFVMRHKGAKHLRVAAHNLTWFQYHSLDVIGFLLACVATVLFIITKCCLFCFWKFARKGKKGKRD", "experiment": "biochemical", "description": "Initial screening assays were performed as described above for the CYP assays using 1 μM or 10 μM of each of the NAs. The inhibitory effects of each agent against UGT2B10 was performed using the known UGT2B10-specific probe substrate, nicotine, in pooled human liver microsomes. […] Pre-incubations containing 500 μM nicotine and 1 or 10 μM NA were subsequently performed at 37° C. in 50 mM Tris-HCl buffer (pH 7.5, in a final volume of 50 μL) and 10 mM MgCl2 for 5 minutes."}, "CYP2A6 [1]": {"target": "T2, CYP2A6 (Homo sapiens, UniProt P11509)", "T2 sequence (P11509 1-494)": "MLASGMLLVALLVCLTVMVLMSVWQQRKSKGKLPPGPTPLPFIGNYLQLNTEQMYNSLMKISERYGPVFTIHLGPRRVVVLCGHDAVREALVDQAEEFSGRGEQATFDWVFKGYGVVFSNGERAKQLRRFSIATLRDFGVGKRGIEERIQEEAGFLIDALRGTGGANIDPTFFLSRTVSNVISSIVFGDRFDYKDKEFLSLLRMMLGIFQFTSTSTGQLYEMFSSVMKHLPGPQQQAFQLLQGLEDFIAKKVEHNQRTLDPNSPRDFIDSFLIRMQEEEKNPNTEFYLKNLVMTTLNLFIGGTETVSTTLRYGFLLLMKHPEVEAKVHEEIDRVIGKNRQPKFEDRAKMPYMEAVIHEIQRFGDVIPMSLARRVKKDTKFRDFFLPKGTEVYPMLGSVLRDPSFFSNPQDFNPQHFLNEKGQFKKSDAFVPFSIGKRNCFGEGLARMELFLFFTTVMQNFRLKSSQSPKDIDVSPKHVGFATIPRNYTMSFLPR", "experiment": "in vitro", "details": "both, microsomes, pH 7.4, IC50 against CYP2A6 (μM)"}, "CYP2A6 [2]": {"target": "T2, CYP2A6", "details": "for IC50: both, human, microsomes, pH 7.4"}, "CYP2A6 [3]": {"target": "T2, CYP2A6", "experiment": "biochemical"}, "in vitro": {"experiment": "in vitro", "details": "for half-life at 10 μM: human, microsomes", "description": "In vitro stability studies. […] Half-lives were calculated using the one-phase exponential decay equation (GraphPad)."}, "CYP1A2": {"target": "T3, CYP1A2 (Homo sapiens, UniProt P05177)", "T3 sequence (P05177 1-516)": "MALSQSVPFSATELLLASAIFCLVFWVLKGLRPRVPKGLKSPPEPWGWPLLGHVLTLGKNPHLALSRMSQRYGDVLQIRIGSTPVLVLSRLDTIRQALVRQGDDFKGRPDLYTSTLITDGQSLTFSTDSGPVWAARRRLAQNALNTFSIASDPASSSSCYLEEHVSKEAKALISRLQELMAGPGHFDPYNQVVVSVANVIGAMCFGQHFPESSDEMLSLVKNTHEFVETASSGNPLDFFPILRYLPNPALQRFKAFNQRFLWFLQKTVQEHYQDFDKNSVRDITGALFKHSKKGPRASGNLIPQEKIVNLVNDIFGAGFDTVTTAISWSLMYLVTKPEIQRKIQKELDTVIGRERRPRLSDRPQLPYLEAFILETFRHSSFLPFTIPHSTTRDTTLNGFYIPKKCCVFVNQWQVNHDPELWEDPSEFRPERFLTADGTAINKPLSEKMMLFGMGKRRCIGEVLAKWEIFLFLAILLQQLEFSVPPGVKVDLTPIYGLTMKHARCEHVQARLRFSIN", "details": "both, microsomes, pH 7.4"}, "CYP2B6": {"target": "T4, CYP2B6 (Homo sapiens, UniProt P20813)", "T4 sequence (P20813 1-491)": "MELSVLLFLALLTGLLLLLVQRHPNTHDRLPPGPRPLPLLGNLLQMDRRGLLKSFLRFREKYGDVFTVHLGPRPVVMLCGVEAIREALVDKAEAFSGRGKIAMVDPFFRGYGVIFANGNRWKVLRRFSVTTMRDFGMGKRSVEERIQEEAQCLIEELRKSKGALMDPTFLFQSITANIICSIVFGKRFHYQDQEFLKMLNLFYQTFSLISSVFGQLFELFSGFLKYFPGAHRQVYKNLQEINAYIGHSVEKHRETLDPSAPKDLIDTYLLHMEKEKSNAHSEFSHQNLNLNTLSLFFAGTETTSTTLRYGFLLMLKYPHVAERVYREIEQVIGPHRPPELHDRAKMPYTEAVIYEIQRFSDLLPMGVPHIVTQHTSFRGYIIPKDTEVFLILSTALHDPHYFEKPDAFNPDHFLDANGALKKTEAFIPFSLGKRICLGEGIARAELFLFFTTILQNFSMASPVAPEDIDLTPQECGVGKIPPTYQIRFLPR", "details": "Table 6"}, "CYP2C8": {"target": "T5, CYP2C8 (Homo sapiens, UniProt P10632)", "T5 sequence (P10632 1-490)": "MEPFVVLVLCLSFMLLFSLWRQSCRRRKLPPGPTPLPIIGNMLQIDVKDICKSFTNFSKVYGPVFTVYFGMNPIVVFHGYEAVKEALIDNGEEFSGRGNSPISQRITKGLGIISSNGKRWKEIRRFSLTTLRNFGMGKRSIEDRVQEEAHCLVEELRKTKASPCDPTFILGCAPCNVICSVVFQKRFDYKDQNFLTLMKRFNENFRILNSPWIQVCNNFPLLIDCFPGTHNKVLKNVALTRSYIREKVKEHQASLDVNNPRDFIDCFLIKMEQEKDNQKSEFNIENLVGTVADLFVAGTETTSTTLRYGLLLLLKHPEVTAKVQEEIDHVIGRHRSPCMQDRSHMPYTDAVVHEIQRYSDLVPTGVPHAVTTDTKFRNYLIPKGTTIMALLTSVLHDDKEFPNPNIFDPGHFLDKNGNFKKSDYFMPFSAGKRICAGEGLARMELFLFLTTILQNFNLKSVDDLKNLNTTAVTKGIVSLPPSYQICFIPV", "details": "Table 6"}, "CYP2E1": {"target": "CYP2E1 (Homo sapiens, UniProt P05181)", "sequence (P05181 whole entry)": "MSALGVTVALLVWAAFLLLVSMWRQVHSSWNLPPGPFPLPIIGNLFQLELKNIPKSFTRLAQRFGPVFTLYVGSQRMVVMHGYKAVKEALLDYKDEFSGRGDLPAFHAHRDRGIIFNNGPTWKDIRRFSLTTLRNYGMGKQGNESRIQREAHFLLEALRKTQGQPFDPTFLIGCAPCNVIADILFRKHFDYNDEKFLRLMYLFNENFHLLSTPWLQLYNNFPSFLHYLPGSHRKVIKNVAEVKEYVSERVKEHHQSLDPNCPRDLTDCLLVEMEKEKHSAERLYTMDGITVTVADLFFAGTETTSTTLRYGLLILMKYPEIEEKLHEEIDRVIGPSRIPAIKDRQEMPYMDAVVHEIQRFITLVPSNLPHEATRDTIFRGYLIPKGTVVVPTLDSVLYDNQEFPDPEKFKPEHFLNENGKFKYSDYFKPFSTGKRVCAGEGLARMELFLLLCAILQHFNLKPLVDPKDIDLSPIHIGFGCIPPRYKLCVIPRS", "details": "Table 6"}, "[4]": {"tested_on": "CYPs 1A2, 2B6, 2C8, 2C9, 2C19, 2D6, 2E1 and 3A4"}, "CYP2C9": {"target": "CYP2C9 (Homo sapiens, UniProt P11712)", "sequence (P11712 whole entry)": "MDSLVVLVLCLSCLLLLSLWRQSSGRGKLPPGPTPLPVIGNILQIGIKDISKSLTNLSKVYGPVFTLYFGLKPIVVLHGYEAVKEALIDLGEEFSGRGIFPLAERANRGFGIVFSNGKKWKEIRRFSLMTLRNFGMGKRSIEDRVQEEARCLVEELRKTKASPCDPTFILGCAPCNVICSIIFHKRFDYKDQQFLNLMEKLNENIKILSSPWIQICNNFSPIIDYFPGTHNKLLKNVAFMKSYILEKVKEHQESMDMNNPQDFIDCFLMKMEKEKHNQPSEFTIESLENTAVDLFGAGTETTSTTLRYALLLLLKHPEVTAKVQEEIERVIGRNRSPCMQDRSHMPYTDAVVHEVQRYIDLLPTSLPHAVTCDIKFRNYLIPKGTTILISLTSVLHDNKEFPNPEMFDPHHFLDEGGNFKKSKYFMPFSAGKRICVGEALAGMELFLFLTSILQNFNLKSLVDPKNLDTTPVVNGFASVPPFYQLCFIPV", "experiment": "CYP2C9 inhibition assay, human liver microsomes, diclofenac probe (cocktail)", "details": "Table 6"}, "CYP2C19": {"target": "CYP2C19 (Homo sapiens, UniProt P33261)", "sequence (P33261 whole entry)": "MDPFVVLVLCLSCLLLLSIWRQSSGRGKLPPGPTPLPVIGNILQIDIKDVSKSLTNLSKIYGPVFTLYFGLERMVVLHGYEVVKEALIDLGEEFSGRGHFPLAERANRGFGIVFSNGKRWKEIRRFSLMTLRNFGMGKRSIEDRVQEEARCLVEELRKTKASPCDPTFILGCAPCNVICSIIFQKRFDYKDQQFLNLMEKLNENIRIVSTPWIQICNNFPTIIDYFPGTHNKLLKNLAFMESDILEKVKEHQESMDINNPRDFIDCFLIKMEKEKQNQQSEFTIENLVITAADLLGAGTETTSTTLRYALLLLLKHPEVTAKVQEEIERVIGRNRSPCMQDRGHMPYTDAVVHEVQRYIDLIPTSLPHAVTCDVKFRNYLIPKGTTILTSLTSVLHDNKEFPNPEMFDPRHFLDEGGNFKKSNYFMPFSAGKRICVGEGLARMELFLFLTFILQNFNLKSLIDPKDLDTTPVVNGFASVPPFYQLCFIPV", "experiment": "CYP2C19 inhibition assay, human liver microsomes, omeprazole probe (cocktail)", "details": "Table 6"}, "CYP2D6": {"target": "CYP2D6 (Homo sapiens, UniProt P10635)", "sequence (P10635 whole entry)": "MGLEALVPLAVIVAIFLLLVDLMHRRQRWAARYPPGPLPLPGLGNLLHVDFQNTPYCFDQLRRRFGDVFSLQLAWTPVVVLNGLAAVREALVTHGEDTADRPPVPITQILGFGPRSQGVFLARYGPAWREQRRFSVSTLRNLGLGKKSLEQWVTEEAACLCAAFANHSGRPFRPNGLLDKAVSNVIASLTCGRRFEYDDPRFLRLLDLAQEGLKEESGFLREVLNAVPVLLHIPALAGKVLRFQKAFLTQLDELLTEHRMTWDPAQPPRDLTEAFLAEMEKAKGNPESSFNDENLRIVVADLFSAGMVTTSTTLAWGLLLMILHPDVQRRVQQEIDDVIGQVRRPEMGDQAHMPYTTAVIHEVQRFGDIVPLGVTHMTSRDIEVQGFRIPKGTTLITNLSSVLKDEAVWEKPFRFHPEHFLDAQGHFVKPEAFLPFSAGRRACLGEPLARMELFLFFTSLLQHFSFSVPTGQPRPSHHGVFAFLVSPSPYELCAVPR", "experiment": "CYP2D6 inhibition assay, human liver microsomes, dextromethorphan probe (cocktail)", "details": "Table 6"}, "[5]": {"details": "IC50 against CYP2A6, human liver microsomes"}, "[6]": {"details": "pH 7.4, half-life (T1/2) in human liver microsomes"}},
  "note": "Counter-ions that a name gives are not always drawn. Like-named read-outs stand apart in the source and are kept apart here.",
  "data": [
    {"smiles": "Cc1cncc(C#CCN)c1", "note": "[Compound D, 3-(5-methylpyridin-3-yl)prop-2-yn-1-amine]", "values": [
      {"measurement": "IC50", "setting": "UGT2B10; IC50 against UGT2B10", "value": "> 1000", "unit": "µM"},
      {"measurement": "IC50", "setting": "UGT2B10; IC50 against UGT2B10 (μM)", "value": "> 1000", "unit": "µM"},
      {"measurement": "IC50", "setting": "CYP2A6 [1]", "value": 10, "unit": "µM"}
    ]},
    {"smiles": "NCC#Cc1cnccc1-c1ccco1", "note": "[Compound M, 3-(4-Furan-2-yl-pyridin-3-yl)-prop-2-ynylamine Dihydrochloride]", "values": [
      {"measurement": "IC50", "setting": "CYP2A6 [2]", "value": 0.56, "unit": "µM"},
      {"measurement": "IC50", "setting": "CYP2A6 [3]; [5]", "value": "< 1", "unit": "µM"}
    ]},
    {"smiles": "CCc1ccncc1C#CCN", "note": "[Compound H, 3-(4-ethylpyridin-3-yl)prop-2-yn-1-amine]", "values": [
      {"measurement": "IC50", "setting": "UGT2B10; IC50 against UGT2B10", "value": "> 1000", "unit": "µM"},
      {"measurement": "IC50", "setting": "UGT2B10; IC50 against UGT2B10 (μM)", "value": "> 1000", "unit": "µM"},
      {"measurement": "T1/2 (min) in human liver microsomes", "setting": "in vitro; pH 7.4", "value": 9.8, "unit": "min"},
      {"measurement": "half-life (T1/2) in human liver microsomes", "setting": "in vitro; pH 7.4", "value": "less than 25 minutes"},
      {"measurement": "IC50", "setting": "CYP2A6 [2]", "value": 0.83, "unit": "µM"},
      {"measurement": "IC50", "setting": "CYP2A6 [3]; IC50 against CYP2A6", "value": "< 1", "unit": "µM"}
    ]},
    {"smiles": "NCc1ccc(-c2cnccc2-c2cncnc2)s1", "note": "[Compound AL, (5-(4-(Pyrimidin-5-yl)pyridin-3-yl)thiophene-2-yl)methanamine Trihydrochloride]", "values": [
      {"measurement": "T1/2 (min) in human liver microsomes", "setting": "in vitro; 10 μM, pH 7.4", "value": ">120", "unit": "min"},
      {"measurement": "half-life at 10 μM", "setting": "in vitro; [6]", "value": "> 1.5", "unit": "h"},
      {"measurement": "IC50", "setting": "CYP2A6 [2]", "value": 1.2, "unit": "µM"}
    ]},
    {"smiles": "NCc1ccc(-c2cnccc2-c2cccnc2)o1", "note": "[Compound AG, (5-([3,4′-Bipyridin]-3′-yl)furan-2-yl)methanamine Trihydrochloride]", "values": [
      {"measurement": "T1/2 (min) in human liver microsomes", "setting": "in vitro; 10 μM, pH 7.4", "value": ">120", "unit": "min"},
      {"measurement": "half-life at 10 μM", "setting": "in vitro; [6]", "value": "> 1.5", "unit": "h"},
      {"measurement": "IC50", "setting": "CYP2A6 [2]", "value": 0.38, "unit": "µM"}
    ]},
    {"smiles": "NCC#Cc1cnccc1Cl", "note": "[Compound L, 3-(4-chloropyridin-3-yl)prop-2-yn-1-amine Dihydrochloride]", "values": [
      {"measurement": "half-life at 10 μM", "setting": "in vitro; pH 7.4, T1/2 (min) in human liver microsomes", "value": 0.467, "unit": "h"},
      {"measurement": "IC50 fold lower than that observed for the reference agent", "setting": "CYP2A6 [2]; CYP2A6", "value": 1.2, "unit": "fold"},
      {"measurement": "IC50 ratio CYP1A2/CYP2A6", "setting": "CYP1A2", "value": 33},
      {"measurement": "IC50 ratio CYP2B6/CYP2A6", "setting": "CYP2B6", "value": 24},
      {"measurement": "IC50 ratio CYP2C8/CYP2A6", "setting": "CYP2C8", "value": ">192"},
      {"measurement": "IC50 ratio CYP2E1/CYP2A6", "setting": "CYP2E1", "value": 10},
      {"measurement": "IC50 ratio CYPhepatic/CYP2A6 against all hepatic CYP enzymes tested", "setting": "[4]", "value": "> 25"},
      {"measurement": "IC50", "setting": "CYP2A6 [3]; IC50 against CYP2A6 (μM), Table 5, alkyne linker agents, pooled human liver microsomes, coumarin […]", "value": 0.13, "unit": "µM"},
      {"measurement": "IC50", "setting": "CYP2A6 [3]; [5]", "value": "< 1", "unit": "µM"},
      {"measurement": "IC50 ratio CYP2C9/CYP2A6", "setting": "CYP2C9", "value": ">385"},
      {"measurement": "IC50 ratio CYP2C19/CYP2A6", "setting": "CYP2C19", "value": 61},
      {"measurement": "IC50 ratio CYP2D6/CYP2A6", "setting": "CYP2D6", "value": 29}
    ]},
    {"smiles": "NCc1ccc(-c2cnccc2-c2ccncc2)s1", "note": "[Compound AJ, (5-([4,4′-Bipyridin]-3′-yl)thiophene-2-yl)methanamine Trihydrochloride]", "values": [
      {"measurement": "T1/2 (min) in human liver microsomes", "setting": "in vitro; 10 μM, pH 7.4", "value": 32, "unit": "min"},
      {"measurement": "IC50", "setting": "CYP2A6 [2]", "value": 0.33, "unit": "µM"}
    ]}
  ]
}
